In patent publication US20200123147A1, “THIAZOLE COMPOUNDS USEFUL AS PRMT5 INHIBITORS” (Bayer Aktiengesellschaft, priority 2017, published 2020):

What was measured:
[1] = biological target: T1, PRMT5:MEP50 protein complex (Homo sapiens, UniProt O14744); test: In vitro assay 1: PRMT5 SPA assay ("EAA"); type: biochemical; details: scintillation proximity assay, methylation of biotinylated H4(1-24) peptide, 3H-SAM, 60 min at 22° C.
T1 construct: FLAG (N); made in house; host or cells: Hi5 insect cells
Excerpt: In Vitro Assay 1: PRMT5 SPA Assay (“EAA”)
PRMT5 inhibitory activities of the compounds described in the present invention were quantified using a scintillation proximity assay (SPA) which measures methylation by the enzyme of a synthetic, biotinylated peptide corresponding to the N-terminal sequence of Histone H4 (a.a. 1-24). The peptide of sequence […]-K(Btn)-amide is commercially available (e.g. from Biosyntan) and will be herein referred to as H4(1-24). The PRMT5:MEP50 protein complex used in the assay was produced in house following standard protocols. Briefly, full length PRMT5 and MEP50 constructs respectively tagged with N-terminal FLAG and 6× His sequences were co-expressed in Hi5 insect cells, and the recombinant protein complex was purified by FLAG affinity and size exclusion chromatography.
In a typical assay 11 different concentrations of each compound (0.1 nM, 0.33 nM, 1.1 nM, 3.8 nM, 13 nM, 44 nM, 0.15 μM, 0.51 μM, 1.7 μM, 5.9 μM and 20 μM) were tested in duplicate within the same microtiter plate. To this end, 100-fold concentrated compound solutions (in DMSO) were previously prepared by serial dilution (1:3.4) of 2 mM stocks in a clear low volume 384-well source microtiter plate (Greiner Bio-One), from which 50 nl of compounds were transferred into a white low volume test microtiter plate from the same supplier. Subsequently, 2.5 μL PRMT5 in aqueous assay buffer [20 mM Bicine pH 8.0 (Alfa Aesar), 7.5 mM Tris(2-carboxyethyl) phosphine hydrochloride (TCEP, Sigma), 0.1% (w/v) bovine gamma globuline (BGG, Sigma), 0.002% (v/v) Tween-20 (Sigma)] were added to the compounds in the test plate to a final enzyme concentration of—typically—7.5 nM (this parameter was adjusted depending on the activity of the enzyme lot in order to be within the linear dynamic range of the assay). The samples were then incubated for 15 min at 22° C. to allow pre-equilibration of the putative enzyme-inhibitor complexes before the start of the methylation reaction, which was initiated by the addition of 2.5 μL 2-fold concentrated solution (in assay buffer) of “cold” S-Adenosyl-L-Methionine (SAM, Sigma, final concentration: 0.5 μM), tritiated 3H-SAM (Perkin Elmer, final concentration: 0.5 μM) and H4(1-24) peptide substrate (final concentration: 0.06 μM). The resulting mixture (5 μL final volume) was shortly centrifuged (2 min., 1500 rpm) and incubated at 22° C. during 60 min. Thereupon the reaction was stopped by adding 3 μL of Streptavidin PS SPA imaging beads (Perkin Elmer, final concentration of 0.375 μg/μL) and “cold” SAM (AK Scientific, 250 μM final concentration) for non-specific binding reduction. Plates containing the stopped reaction were sealed with transparent adhesive foil (Perkin Elmer), centrifuged (2 min., 1500 rpm), and further incubated either 1 h at 22° C. or overnight at 4° C. in order to allow the SPA signals to develop. Subsequently, the amount of product was evaluated by measuring the energy transfer from the β-particles emitted by the 3H-labeled substrate to the Europium scintillator co-polymerized in the polystyrene matrix of the PS imaging beads, using the standard settings for this purpose of a Viewlux (Perkin-Elmer) CCD plate imaging device (emission filter 613/55 (IFP).
The resulting scintillation counts were taken as indicator for the amount of methylated peptide per well. The data were normalised using two sets of control wells (typically 16 each) for high—(=enzyme reaction with DMSO instead of test compound=0%=minimum inhibition) and low—(=all assay components without enzyme=100%=maximum inhibition) PRMT5 activity. IC50 values were calculated by fitting the normalized inhibition data to a 4-parameter logistic equation using the “Screener” analysis software from Genedata.

[2] = test system: PRMT5 (histone H4 Arg3 SDMA levels in MDA-MB-468 cells); test: In vitro assay 2: quantification of SDMA (symmetric dimethylarginine) expression levels (H4 Arg3) in cancer cells, High-Content Analysis; type: cell-based; details: Homo sapiens, 72 h, SDMA histone H4 (Arg3) average signal intensity per cell
Excerpt: In Vitro Assay 2: Quantification of SDMA (Symmetric Dimethylarginine) Expression Levels (H4 Arg3) After Small Molecule Treatment of Cancer Cells
The SDMA-assay based on High-Content Analysis (HCA) enables the biological characterization of compounds inhibiting PRMT5. By this assay, substances are benchmarked on their cellular activity to modulate histone H4 Arg3 levels over broad inhibitor concentration ranges.
Cultivated cells of the human mammary gland tumor cell line MDA-MB-468 (ATCC HTB-132) were plated at a density of 2500 cells per well in a 384-well microtiter plate in 20 μL of Roswell Park Memorial Institute (RPMI) 1640 medium supplemented with 1% (v/v) glutamine, 1% (v/v) penicillin, 1% (v/v) streptomycin and 10% (v/v) fetal calf serum. After pre-incubation at 37° C. overnight, test compo unds solubilized in DMSO were added at various concentrations (0 μM, as well as in the range of 0.005 μM-30 μM; the final concentration of the solvent DMSO was 0.5% (v/v)). Cells were incubated at 37° C. for 72 h in the presence of test compounds. Thereafter, cells were fixed with 4% (v/v) paraformaldehyde in phosphate buffered saline (PBS) at room temperature for 1 h, permeabilized using 0.5% (v/v) Triton X™ 100 in PBS for 15 min and blocked with 1% (v/v) bovine serum albumin (BSA) in PBS for 30 min. In the following, cells were incubated with anti-dimethyl-histone H4 (Arg3) symmetric antibody (Millipore #07-947) at RT for 2 h. After a single washing step with blocking solution, cells were incubated with species-specific fluorescent conjugated secondary antibody Alexa Fluor™ 488 (Jackson Immuno Research #111-546-003) at RT for 2 h.
Image acquisition for cells was carried out using the confocal imaging system OPERA® (PerkinElmer). Images were captured using two channels: Hoechst 33342 stain (DNA) and Alexa Fluor™ 488 (SDMA staining); and were analyzed using the MetaXpress® software (Molecular Devices). Exposure times were chosen for individual experiments to prevent saturation and allow for quantification in the linear range. A minimum of 500 cells in 5 field views were analyzed per well using 10× water immersion objective with a two-fold binning.
The image analysis routine was developed in MetaXpress®. The standardized image-analysis module “Count Nuclei” and the images of the DNA-channel were used for nuclei segmentation. The segmented nuclei were filtered for size, shape and signal intensity to exclude possible apoptotic and non-viable cells along with metaphase nuclei. These phenotypes result in overestimated antibody signals, due to their strong chromatin compaction. For further processing, binary object masks were calculated from the segmented and positively selected nuclei. The binary masks served as templates to be superimposed over the images of the SDMA channel. The SDMA average signal intensity per cell was quantified for every image set. The assay raw data were further analyzed by four parameter logistic regression analysis using Genedata's Assay Analyzer® and Condoseo® software to determine the IC50 value for each tested compound.

T1 sequence (O14744 whole entry, species assumed): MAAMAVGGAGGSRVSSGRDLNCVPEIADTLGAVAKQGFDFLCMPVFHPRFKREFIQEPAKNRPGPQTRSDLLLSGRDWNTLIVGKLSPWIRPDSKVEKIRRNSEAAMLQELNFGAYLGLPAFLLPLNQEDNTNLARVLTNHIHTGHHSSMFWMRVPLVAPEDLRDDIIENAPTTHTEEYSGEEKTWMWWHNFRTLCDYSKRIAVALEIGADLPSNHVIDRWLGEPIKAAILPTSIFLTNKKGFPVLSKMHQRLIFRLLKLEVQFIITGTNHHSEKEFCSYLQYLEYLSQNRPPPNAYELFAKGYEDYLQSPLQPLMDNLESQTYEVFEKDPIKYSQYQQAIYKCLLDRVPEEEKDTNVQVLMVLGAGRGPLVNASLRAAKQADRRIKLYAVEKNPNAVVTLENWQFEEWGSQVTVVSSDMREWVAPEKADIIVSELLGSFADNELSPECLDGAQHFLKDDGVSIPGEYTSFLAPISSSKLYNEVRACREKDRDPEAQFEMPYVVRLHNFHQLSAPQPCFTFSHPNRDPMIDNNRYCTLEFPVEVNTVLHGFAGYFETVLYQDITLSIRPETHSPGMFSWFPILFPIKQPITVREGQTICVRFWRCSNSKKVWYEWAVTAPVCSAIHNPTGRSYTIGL
T1 sequence (Q9BQA1 whole entry partner, species assumed): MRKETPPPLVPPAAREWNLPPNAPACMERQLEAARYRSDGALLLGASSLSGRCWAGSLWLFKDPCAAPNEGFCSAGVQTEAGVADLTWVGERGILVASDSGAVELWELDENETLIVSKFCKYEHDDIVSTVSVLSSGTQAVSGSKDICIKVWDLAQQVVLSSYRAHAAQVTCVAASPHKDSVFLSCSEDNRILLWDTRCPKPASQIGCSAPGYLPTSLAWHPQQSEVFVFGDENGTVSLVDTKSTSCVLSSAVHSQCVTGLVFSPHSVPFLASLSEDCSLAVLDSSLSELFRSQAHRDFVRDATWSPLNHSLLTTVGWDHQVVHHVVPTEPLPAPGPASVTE

IC50 [1] [nM] | IC50 [2] [µM] | Structure (SMILES)
1390 | 26.7 | CC(C)(C)c1cc(NC(=O)c2csc(Nc3ccc(Cl)c(Cl)c3)n2)no1 [Example 21, N-(5-tert-Butyl-1,2-oxazol-3-yl)-2-[(3,4-dichlorophenyl)amino]-1,3-thiazole-4-carboxamide]
149 | 17.6 | CC(C)(C)c1cc(NC(=O)c2csc(Nc3ccc(F)cc3)n2)no1 [Example 7, N-(5-tert-Butyl-1,2-oxazol-3-yl)-2-[(4-fluorophenyl)amino]-1,3-thiazole-4-carboxamide]
